Measured values published in US11028088B2, “Modulators of BTK proteolysis and methods of use” (Yale University, priority 2018, dated 2021).

Target: BLK (Homo sapiens, UniProt P51451)
Assay: KINOMEscan competition binding assay, BLK
Details: read-out: KINOMEscan percentage of control, BLK

Sequence of BLK (P51451 whole entry): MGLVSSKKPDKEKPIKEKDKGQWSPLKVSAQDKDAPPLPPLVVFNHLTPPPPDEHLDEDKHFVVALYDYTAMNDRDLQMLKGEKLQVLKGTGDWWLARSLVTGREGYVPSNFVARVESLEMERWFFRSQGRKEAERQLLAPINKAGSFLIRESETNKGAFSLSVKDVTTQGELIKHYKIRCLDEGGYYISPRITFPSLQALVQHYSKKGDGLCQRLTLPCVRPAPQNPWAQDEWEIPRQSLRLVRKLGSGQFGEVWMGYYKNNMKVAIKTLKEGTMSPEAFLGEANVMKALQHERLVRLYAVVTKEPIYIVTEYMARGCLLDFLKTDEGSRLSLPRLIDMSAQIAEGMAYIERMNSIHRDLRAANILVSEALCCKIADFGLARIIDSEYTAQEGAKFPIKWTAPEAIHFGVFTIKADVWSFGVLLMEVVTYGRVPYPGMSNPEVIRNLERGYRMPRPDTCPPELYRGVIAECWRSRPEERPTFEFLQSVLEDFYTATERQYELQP

remaining binding at 1 µM: 0.35%
SMILES: Nc1ncnc2c1c(-c1ccc(Oc3ccccc3)cc1)nn2C1CCN(CCOCCOCC(=O)Nc2ccc3c(c2)C(=O)N(C2CCC(=O)NC2=O)C3=O)CC1 (stereo not shown) [Compound 102, 2-[2-[2-[4-[4-amino-3-(4-phenoxyphenyl)pyrazolo[3,4-d]pyrimidin-1-yl]-1-piperidyl]ethoxy]ethoxy]-N-[2-(2,6-dioxo-3-piperidyl)-1,3-dioxo-isoindolin-5-yl]acetamide]
